# Measured values reported in patent US12216121B2, “Methods and compositions for spacial and temporal measurement of catalytic activity” (The University of Chicago, priority 2017, dated 2025).
# Assay: Specificity of reporter dye (compound 8) towards metal ions and amino acids
# Details: 1 mM metal ions, 5 mM H2O2 and amino acids, phosphate buffer pH 7.2; all tested except cysteine
# Description: FIG. 5C illustrates the sensitivity of sensing dye, (compound 8) in presence of different analyte such as 1. Phosphate buffer (pH=7.2), 1 mM of 2. Na+, 3. K+, 4. Ca2+, 5. Fe2+, 6. Zn2+, and 5 mM of 7. H2O2, 8. His, 9. Ser, 10. Lys, 11. Val, and 12. Cys. Each intensity is normalized from the intensity of compound 8 before treatment with respective analytes.
# The specificity of reporter dye was checked towards thiol disulfide exchange reaction and treated the reporter dye (compound 8) with different metal ions and amino acids.
substance,measurement,value
thiopyridyl conjugated blocked 6′-O propargyl fluorescein [compound 8],reaction with metal ions and amino acids (fluorescence),No reaction was observed
